A short description of this series: Pre-formulation telbivudine stability versus pH at elevated temperature. Format: physicochemical. Particulars: investigated pH 2-9, 50° C., from assay and thymine content. The protocol:
During pre-formulation, telbivudine stability is investigated within a range of pH from 2-9, at elevated temperature 50° C. […] The pH of the oral solution is a highly relevant parameter, due to the influence pH on the retardation of microbial growth in the solution during storage.

Data on one compound can be found in US8445457B2, “Oral pharmaceutical solutions containing telbivudine” (Novartis AG, priority 2007, dated 2013).

In the case of `Cc1cn([C@@H]2C[C@@H](O)[C@H](CO)O2)c(=O)[nH]c1=O` [telbivudine, β-L-thymidine/2′-deoxy-L-thymidine], the “pH range optimal for drug substance stability” value is listed as 3-9.
